Assay results reported in patent US20060069149A1, “Thiadibenzoazulene derivatives for the treatment of inflammatory diseases” (Pliva-Istrazivacki Institut d.o.o., priority 2003, published 2006).

System: TNF-α and IL-1 secretion
Test: investigated assays, not said which: TNF-α and IL-1 secretion in human PBMC, in mouse peritoneal macrophages, LPS-induced secretion in mice, writhing assay, LPS-induced shock in mice
Conditions: active means: PBMC IC50 20 μM or lower; mouse macrophages IC50 10 μM or lower; 30% or more TNF-α inhibition at 10 mg/kg; analgetic activity as acetylsalicylic acid or better; survival 40% or more at 30 mg/kg
Experimental: The inhibitory action of the present compounds upon TNF-α and IL-1 secretion was determined by the following in vitro and in vivo experiments:
Determination of TNF-α and IL-1 Secretion in Human Peripheral Blood Mononuclear Cells in vitro
Human peripheral blood mononuclear cells (PBMC) were prepared from heparinized whole blood after separating PBMC on Ficoll-Paque™Plus (Amersham-Pharmacia). […] The IL-1 level was determined in an assay under the same conditions and with the same number of cells and the same concentration of the stimulus by ELISA procedure (R&D Systems). The percentage of inhibition of TNF-α or IL-1 production was calculated by the equation: % inhibition=[1−(TS−NC)/(PC−NC)]*100. […]
In order to obtain peritoneal macrophages, Balb/C mouse strain males, age 8 to 12 weeks, were injected i.p. with 300 μg of zymosan (SIGMA) dissolved in a phosphate buffer (PBS) in a total volume of 0.1 ml/mouse. […] The TNF-α level in the cell supernatant was determined by ELISA procedure (R&D Systems, Biosource). IL-1 level was determined in an assay, identical to an assay for TNF-a by ELISA procedure (R&D Systems). The percentage of inhibition of TNF-α or IL-1 production was calculated by the equation: % inhibition=[1−(TS−NC)/(PC−NC)]*100. […]

SMILES	activity in the investigated assays
CN(C)CCCOCc1cc2c(s1)-c1ccc(OCCCN(C)C)cc1Oc1ccccc1-2 [Example 14, {3-[2-(3-Dimethylamino-propoxymethyl)-8-oxa-1-thia-dibenzo[e,h]azulene-10-yloxy]-propyl}-dimethyl-amine]	activity in at least two investigated assays
CCOC(=O)c1cc2c(s1)-c1ccc(OCCN3CCCC3)cc1Oc1ccccc1-2 [Example 4, 10-(2-Pyrrolidin-1-yl-ethoxy)-8-oxa-1-thia-dibenzo[e,h]azulene-2-carboxylic acid ethyl ester]	activity in at least two investigated assays
